The source of these data is US20240383898A1, “PYRIDO RING COMPOUND, PREPARATION METHOD THEREFOR, INTERMEDIATE, COMPOSITION, AND APPLICATION” (YIYOU BIOTECH (SHANGHAI) CO., LTD, priority 2021, published 2024).

Some results are limits rather than exact numbers.

For orientation: IC50 means the concentration at which inhibition is half-maximal. A high value points to weaker potency in that assay.

One experiment deals with T1, JAK1 (Homo sapiens, UniProt P23458).
T1 construct: purchased Carna 08-114
T1 sequence (P23458 whole entry, species assumed): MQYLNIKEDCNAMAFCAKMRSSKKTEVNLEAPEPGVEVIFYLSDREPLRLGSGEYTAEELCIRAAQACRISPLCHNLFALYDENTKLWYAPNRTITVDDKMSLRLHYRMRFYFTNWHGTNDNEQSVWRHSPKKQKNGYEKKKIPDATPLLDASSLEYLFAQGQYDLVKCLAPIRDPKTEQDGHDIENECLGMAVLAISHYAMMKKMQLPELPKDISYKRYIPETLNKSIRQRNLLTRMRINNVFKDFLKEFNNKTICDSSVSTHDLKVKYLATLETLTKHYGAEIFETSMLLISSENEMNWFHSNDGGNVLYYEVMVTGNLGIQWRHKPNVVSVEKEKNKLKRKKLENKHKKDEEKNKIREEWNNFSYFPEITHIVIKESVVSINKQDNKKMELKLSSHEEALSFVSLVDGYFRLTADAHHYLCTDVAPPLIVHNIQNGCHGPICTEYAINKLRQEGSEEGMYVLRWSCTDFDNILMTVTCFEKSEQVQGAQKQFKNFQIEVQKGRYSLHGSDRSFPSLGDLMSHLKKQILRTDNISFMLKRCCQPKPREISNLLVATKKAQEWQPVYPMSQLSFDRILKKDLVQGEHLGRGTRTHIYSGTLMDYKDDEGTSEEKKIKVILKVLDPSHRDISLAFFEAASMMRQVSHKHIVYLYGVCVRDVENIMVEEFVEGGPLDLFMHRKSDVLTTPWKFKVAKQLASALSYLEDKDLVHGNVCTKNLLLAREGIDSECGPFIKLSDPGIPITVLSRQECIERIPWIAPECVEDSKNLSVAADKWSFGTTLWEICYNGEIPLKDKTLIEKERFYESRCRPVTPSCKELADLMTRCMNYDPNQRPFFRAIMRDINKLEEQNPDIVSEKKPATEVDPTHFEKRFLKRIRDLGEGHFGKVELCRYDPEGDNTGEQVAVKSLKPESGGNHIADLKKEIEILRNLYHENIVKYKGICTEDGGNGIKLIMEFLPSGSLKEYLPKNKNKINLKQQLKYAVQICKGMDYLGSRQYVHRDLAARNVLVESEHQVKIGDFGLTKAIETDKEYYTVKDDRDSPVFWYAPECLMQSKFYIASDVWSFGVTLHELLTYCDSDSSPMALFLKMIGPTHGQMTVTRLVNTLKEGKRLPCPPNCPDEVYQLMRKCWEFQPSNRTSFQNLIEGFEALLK
Kind of experiment: In vitro activity test of JAK1 kinase (Caliper EZ Reader conversion assay). The experiment is classed as biochemical. The note with it: enzyme activity, 10 concentrations from 1000 nM, 3-fold dilution. As to the method: (§1) In Vitro Activity Test of JAK1 and JAK2 Kinases
(§2) • Centrifuge (manufacturer: Eppendorf, model: 5430) • ELISA Instrument (Manufacturer: Perkin Elmer, Model: Caliper EZ Reader 1I) • Echo 550 (Manufacturer: Labcyte, Model: Echo 550)
(§3) (1) Prepare 1 Kinase buffer.
(§4) (2) Compound concentration gradient preparation: The test compound was tested at 1000 nM, 3-fold dilution, 10 concentrations, two-well assay, and configured to a 100-fold final concentration in a 384-well plate. 250 nl of the test compound was then transferred to the 384 reaction plate using Echo550. 250 nl of 100% DMSO was added to each of the negative and positive control wells.
(§5) (3) Prepare 2.5 times the final concentration of kinase solution with 1×Kinase buffer.
(§6) (4) Add 10 μL of 2.5 times the final concentration of kinase solution to the compound wells and 10 μL of 1×Kinase buffer to the negative control wells.
(§7) (5) Centrifuge at 1000 rpm for 30 seconds, mix well with shaking, and incubate at room temperature for 10 minutes.
(§8) (6) Prepare a 25/15-fold final concentration of mixture of ATP and Kinase substrate with 1×Kinase buffer.
(§9) (7) Add 15 μL of a mixture of 25/15 times the final concentration of ATP and substrate to start the reaction.
(§10) (8) Centrifuge the 384-well plate at 1000 rpm for 30 seconds, mix well with shaking, and incubate at room temperature for an appropriate amount of time.
(§11) (9) Stop the kinase reaction by adding 30 μL of termination solution, centrifuge at 1000 rpm for 30 seconds, and mix well with shaking.
(§12) (10) Read the conversion rate with Caliper EZ Reader.
(§13) where: Conversion %_sample is the conversion rate reading of the sample-, Conversion %_min: the average value of the negative control wells, representing the conversion reading of the wells without enzyme activity: Conversion %-max: the average value of the positive control wells, representing the conversion reading of the wells without compound inhibition.
(§14) The log value of concentration was used as the X-axis and the percentage inhibition as the Y-axis, and the function of the analytical software GraphPad Prism 5; log(inhibitor) vs. response -Variable slope, was used to lit dose-effect curves to obtain the IC50) values of each compound on enzyme activity.
(§15) The formula is Y=Bottom+(Top-Bottom)/(1+10^((LogIC50-X)*HillSlope))
(§16) The 1C50 data are specified in Table 1.

The next experiment concerns the target T2, JAK2 (Homo sapiens, UniProt O60674).
T2 construct: purchased Carna 08-045
Description: In vitro activity test of JAK2 kinase (Caliper EZ Reader conversion assay). Type of experiment: biochemical. The note with it: enzyme activity, 10 concentrations from 1000 nM, 3-fold dilution. The procedure: as §1, §2, §3, §4, §5, §6, §7, §8, §9, §10, §11, §12, §13, §14, §15, §16

T2 sequence (O60674 whole entry, species assumed): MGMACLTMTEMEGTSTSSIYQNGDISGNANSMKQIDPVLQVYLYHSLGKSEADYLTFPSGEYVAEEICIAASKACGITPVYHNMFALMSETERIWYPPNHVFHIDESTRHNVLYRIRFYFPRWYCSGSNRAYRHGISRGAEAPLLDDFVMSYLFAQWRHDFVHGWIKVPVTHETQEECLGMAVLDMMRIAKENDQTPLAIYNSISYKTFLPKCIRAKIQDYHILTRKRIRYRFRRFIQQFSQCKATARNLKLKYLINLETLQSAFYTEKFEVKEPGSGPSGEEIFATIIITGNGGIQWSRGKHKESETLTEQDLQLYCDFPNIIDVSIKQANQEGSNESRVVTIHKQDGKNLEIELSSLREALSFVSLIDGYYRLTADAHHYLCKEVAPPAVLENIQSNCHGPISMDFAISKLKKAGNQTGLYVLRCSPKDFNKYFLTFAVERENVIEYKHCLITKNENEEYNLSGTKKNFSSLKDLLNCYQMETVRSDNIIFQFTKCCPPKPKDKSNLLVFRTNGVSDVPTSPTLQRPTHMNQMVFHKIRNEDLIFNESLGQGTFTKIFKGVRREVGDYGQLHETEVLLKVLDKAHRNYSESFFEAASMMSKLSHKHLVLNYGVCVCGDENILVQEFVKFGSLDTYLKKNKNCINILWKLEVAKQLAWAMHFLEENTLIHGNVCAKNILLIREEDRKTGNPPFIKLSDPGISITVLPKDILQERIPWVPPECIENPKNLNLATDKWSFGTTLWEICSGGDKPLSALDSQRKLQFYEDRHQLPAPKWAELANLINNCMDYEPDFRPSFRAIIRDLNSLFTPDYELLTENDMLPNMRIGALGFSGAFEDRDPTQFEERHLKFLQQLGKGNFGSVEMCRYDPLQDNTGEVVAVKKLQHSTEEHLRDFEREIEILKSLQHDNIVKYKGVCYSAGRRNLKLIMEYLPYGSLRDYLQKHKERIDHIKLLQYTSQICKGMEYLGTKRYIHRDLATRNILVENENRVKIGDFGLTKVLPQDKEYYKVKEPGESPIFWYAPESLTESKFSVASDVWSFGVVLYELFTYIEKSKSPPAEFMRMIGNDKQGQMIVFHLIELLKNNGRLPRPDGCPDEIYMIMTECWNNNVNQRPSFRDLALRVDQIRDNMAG

Consider `O=C(NCC(F)(F)F)N1CCC(n2c(-c3ncc[nH]3)nc3cnc4[nH]ccc4c32)C1` (stereo in doubt) [LXS24, (R)-3-(2-(1H-imidazol-2-yl)imidazo[4,5-d]pyrrolo[2,3-b]pyridin-1(6H)-yl)-N-(2,2,2-trifluoroethyl)pyrrolidine-1-carboxamide], for which the IC50 against JAK1 and at JAK2 was 100 to 1000 nM in each case.
`C=CC(=O)N1CCC(n2c(-c3ncc[nH]3)nc3cnc4[nH]ccc4c32)C1` (stereo in doubt) [LXS25, (R)-1-(3-(2-(1H-imidazol-2-yl)imidazo[4,5-d]pyrrolo[2,3-b]pyridin-1(6H)-yl)pyrrolidin-1-yl)prop-2-en-1-one]: the IC50 on JAK1 and against JAK2 was 100 to 1000 nM in each case.
In the case of `N#CCn1cc(-n2c(-c3ccc(CO)o3)nc3cnc4[nH]ccc4c32)cn1` [LXS81, 2-(4-(2-(5-(Hydroxymethyl)furan-2-yl)imidazo[4,5-d]pyrrolo[2,3-b]pyridin-1(6H)-yl)-1H-pyrazol-1-yl)acetonitrile], the IC50 against JAK1 and on JAK2 was 10 to 100 nM throughout.
As to `O=S(=O)(N1CCC(n2c(-c3ncc[nH]3)nc3cnc4[nH]ccc4c32)C1)C(F)(F)F` (centres unmarked) [LXS19, 2-(1H-imidazol-2-yl)-1-(1-((trifluoromethyl)sulfonyl)pyrrolidin-3-yl)-1,6-dihydroimidazo[4,5-d]pyrrolo[2,3-b]pyridine], the IC50 against JAK1 and against JAK2 was 10 to 100 nM throughout.
With `N#C[C@H]1CC[C@H](n2c(-c3cccc(O)c3)nc3cnc4[nH]ccc4c32)CC1` (stereo in doubt) [LXS35, trans-4-(2-(3-Hydroxyphenyl)imidazo[4,5-d]pyrrolo[2,3-b]pyridin-1(6H)-yl)cyclohexanecarbonitrile], the IC50 against JAK1 was 10 to 100 nM; against JAK2 it was below 10 nM.
The matching figures for `C[C@@H](O)c1nc2cnc3[nH]ccc3c2n1C1CCN(CC#N)C1` (stereo partly drawn) [LXS48, 2-(3-(2-((R)-1-Hydroxyethyl)imidazo[4,5-d]pyrrolo[2,3-b]pyridin-1(6H)-yl)pyrrolidin-1-yl)acetonitrile]: 10 to 100 nM and 100 to 1000 nM.
For the compound `C[C@@H](O)c1nc2cnc3[nH]ccc3c2n1[C@H]1CCN(CCC(F)(F)C(F)(F)F)C1` [LXS97, (R)-1-(1-((S)-1-(3,3,4,4,4-Pentafluorobutyl)pyrrolidin-3-yl)imidazo[4,5-d]pyrrolo[2,3-b]pyridin-2-yl)ethanol], the IC50 is below 10 nM at JAK1 and 100 to 1000 nM at JAK2.
On the same counts, the results for `O=C(NCC(F)(F)F)N1CCC(n2c(-c3cccc(O)c3)nc3cnc4[nH]ccc4c32)C1` (centres unmarked) [LXS34, 3-(2-(3-Hydroxyphenyl)imidazo[4,5-d]pyrrolo[2,3-b]pyridin-1(6H)-yl)-N-(2,2,2-trifluoroethyl)pyrrolidine-1-carboxamide] are 100 to 1000 nM and 100 to 1000 nM.
Regarding `Oc1cccc(-c2nc3cnc4[nH]ccc4c3n2[C@H]2CCN(CCCC(F)(F)F)C2)c1` [LXS99, (S)-3-(1-(1-(4,4,4-trifluorobutyl)pyrrolidin-3-yl)-1,6-dihydroimidazo[4,5-d]pyrrolo[2,3-b]pyridin-2-yl)phenol], the IC50 at JAK1 and on JAK2 was 10 to 100 nM in each case.
`C[C@@H](O)c1nc2cnc3[nH]ccc3c2n1[C@@H]1CN(CCCC(F)(F)F)CC1F` (stereo partly drawn) [LXS86, (1R)-1-(1-((3R)-4-fluoro-1-(4,4,4-trifluorobutyl)pyrrolidin-3-yl)-1,6-dihydroimidazo[4,5-d]pyrrolo[2,3-b]pyridin-2-yl)ethan-1-ol]: the IC50 is below 10 nM against JAK1 and 100 to 1000 nM at JAK2.
For the compound `O=C(C1CC1)N1CCC(n2c(-c3ccc(CO)o3)nc3cnc4[nH]ccc4c32)C1` (centres unmarked) [LXS17, Cyclopropyl(3-(2-(5-(hydroxymethyl)furan-2-yl)imidazo[4,5-d]pyrrolo[2,3-b]pyridin-1(6H)-yl)pyrrolidin-1-yl) methanone], the IC50 against JAK1 and against JAK2 was 10 to 100 nM in each case.
As for `N#CCCCn1cc(-n2cnc3cnc4[nH]ccc4c32)cn1` [LXS103, 4-(4-(imidazo[4,5-d]pyrrolo[2,3-b]pyridin-1(6H)-yl)-1H-pyrazol-1-yl)butanenitrile], the IC50 against JAK1 and against JAK2 was 10 to 100 nM each time.
Consider `C[C@@H](O)c1nc2cnc3[nH]ncc3c2n1[C@H]1CCN(CCCC#N)C1` [LXS85, 4-((S)-3-(2-((R)-1-Hydroxyethyl)imidazo[4,5-d]pyrazolo[3,4-b]pyridin-1(6H)-yl)pyrrolidin-1-yl)butanenitrile], for which the IC50 against JAK1 was below 10 nM; against JAK2, 100 to 1000 nM.
With `C[C@@H](O)c1nc2cnc3[nH]ccc3c2n1C1CCN(C(=O)c2ccc(F)cc2)C1` (stereo partly drawn) [LXS03, (4-Fluorophenyl)(3-(2-((R)-1-Hydroxyethyl)imidazo[4,5-d]pyrrolo[2,3-b]pyridin-1(6H)-yl)pyrrolidin-1-yl)methanone], the IC50 against JAK1 and on JAK2 was 100 to 1000 nM each time.
Regarding `O=S(=O)(C1CC1)N1CCC(n2c(-c3ccc(CO)o3)nc3cnc4[nH]ccc4c32)C1` (centres unmarked) [LXS45, (5-(1-(1-(cyclopropylsulfonyl)pyrrolidin-3-yl)-1,6-dihydroimidazo[4,5-d]pyrrolo[2,3-b]pyridin-2-yl)furan-2-yl)methanol], the IC50 against JAK1 and at JAK2 was 10 to 100 nM in each case.
On to `Cc1ncc(-c2nc3cnc4[nH]ccc4c3n2C2CCC(C#N)CC2)s1` (stereo in doubt) [LXS26, trans-4-(2-(2-Methylthiazol-5-yl)imidazo[4,5-d]pyrrolo[2,3-b]pyridin-1(6H)-yl)cyclohexanecarbonitrile], for which the 50% inhibitory concentration (IC50) against JAK1 and against JAK2 was 10 to 100 nM throughout.
For the compound `CS(=O)(=O)c1ccc(C2Nc3cnc4[nH]ccc4c3N2C2CCC(C#N)CC2)cc1` (stereo in doubt) [LXS44, trans-4-(2-(4-(Methylsulfonyl)phenyl)-2,3-dihydroimidazo[4,5-d]pyrrolo[2,3-b]pyridin-1(6H)-yl)cyclohexanecarbonitrile], the half-maximal inhibitory concentration (IC50) at JAK1 and on JAK2 was 10 to 100 nM in each case.
As to `C[C@@H](O)c1nc2cnc3[nH]ccc3c2n1[C@H]1CCN(CCC(F)(F)F)C1` [LXS96, (R)-1-(1-((S)-1-(3,3,3-trifluoropropyl)pyrrolidin-3-yl)imidazo[4,5-d]pyrrolo[2,3-b]pyridin-2-yl)ethanol], the IC50 was below 10 nM against JAK1 and 100 to 1000 nM against JAK2.
The matching figures for `N#CCCn1cc(-n2c(-c3cccc(O)c3)nc3cnc4[nH]ccc4c32)cn1` [LXS82, 3-(4-(2-(3-Hydroxyphenyl)imidazo[4,5-d]pyrrolo[2,3-b]pyridin-1(6H)-yl)-1H-pyrazol-1-yl)propanenitrile]: 10 to 100 nM and 10 to 100 nM.
With `CCS(=O)(=O)N1CC(CC#N)(n2cc(-n3c(-c4ccc(CO)o4)nc4cnc5[nH]ccc5c43)cn2)C1` [LXS13, 2-(1-(ethylsulfonyl)-3-(4-(2-(5-(hydroxymethyl)furan-2-yl)imidazo[4,5-d]pyrrolo[2,3-b]pyridin-1(6H)-yl)-1H-pyrazol-1-yl)azetidin-3-yl)acetonitrile], the IC50 against JAK1 lay in the range of 100 to 1000 nM; against JAK2, 10 to 100 nM.
The matching figures for `N#CCCn1cc(-n2cnc3cnc4[nH]ccc4c32)cn1` [LXS79, 3-(4-(Imidazo[4,5-d]pyrrolo[2,3-b]pyridin-1(6H)-yl)-1H-pyrazol-1-yl)propanenitrile]: 100 to 1000 nM and below 10 nM.
On the same counts, the results for `C[C@@H](O)c1nc2cnc3[nH]ccc3c2n1C1CCN(S(=O)(=O)c2cccs2)C1` (stereo partly drawn) [LXS12, (1R)-1-(1-(1-(thiophen-2-ylsulfonyl)pyrrolidin-3-yl)-1,6-dihydroimidazo[4,5-d]pyrrolo[2,3-b]pyridin-2-yl)ethan-1-ol] are 10 to 100 nM and 100 to 1000 nM.
Regarding `N#CCC(C1CCCC1)n1cc(-n2c(C(F)(F)F)nc3cnc4[nH]ccc4c32)cn1` (centres unmarked) [LXS66, 3-Cyclopentyl-3-(4-(2-(trifluoromethyl)imidazo[4,5-d]pyrrolo[2,3-b]pyridin-1(6H)-yl)-1H-pyrazol-1-yl)propanenitrile], the IC50 against JAK1 and on JAK2 was 10 to 100 nM throughout.
In the case of `N#CCCCn1cc(-n2c(C3CCC3)nc3cnc4[nH]ccc4c32)cn1` [LXS107, 4-(4-(2-cyclobutylimidazo[4,5-d]pyrrolo[2,3-b]pyridin-1(6H)-yl)-1H-pyrazol-1-yl)butanenitrile], the results for the 50% inhibitory concentration (IC50) against JAK1 and against JAK2 were 100 to 1000 nM and 10 to 100 nM, respectively.
Turning to `Cc1ccc(-c2nc3cnc4[nH]ccc4c3n2-c2cnn(CCCC#N)c2)o1` [LXS104, 4-(4-(2-(5-methylfuran-2-yl)imidazo[4,5-d]pyrrolo[2,3-b]pyridin-1(6H)-yl)-1H-pyrazol-1-yl)butanenitrile], the IC50 against JAK1 and against JAK2 was 10 to 100 nM each time.
